This note sets out measurements from patent US10829501B2 (BRISTOL-MYERS SQUIBB COMPANY, priority 2016, dated 2020).

The target in the assay is ROCK2 (Homo sapiens, UniProt O75116). As to the kind of experiment: ROCK2 kinase inhibition assay (LABCHIP 3000 Reader, FITC peptide substrate).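 Also: rho kinase reaction read by separating phosphorylated from unphosphorylated peptide on chip, with inhibition of kinase activity computed per concentration across a dose-response series.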
ROCK2, sequence (O75116 whole entry, species assumed): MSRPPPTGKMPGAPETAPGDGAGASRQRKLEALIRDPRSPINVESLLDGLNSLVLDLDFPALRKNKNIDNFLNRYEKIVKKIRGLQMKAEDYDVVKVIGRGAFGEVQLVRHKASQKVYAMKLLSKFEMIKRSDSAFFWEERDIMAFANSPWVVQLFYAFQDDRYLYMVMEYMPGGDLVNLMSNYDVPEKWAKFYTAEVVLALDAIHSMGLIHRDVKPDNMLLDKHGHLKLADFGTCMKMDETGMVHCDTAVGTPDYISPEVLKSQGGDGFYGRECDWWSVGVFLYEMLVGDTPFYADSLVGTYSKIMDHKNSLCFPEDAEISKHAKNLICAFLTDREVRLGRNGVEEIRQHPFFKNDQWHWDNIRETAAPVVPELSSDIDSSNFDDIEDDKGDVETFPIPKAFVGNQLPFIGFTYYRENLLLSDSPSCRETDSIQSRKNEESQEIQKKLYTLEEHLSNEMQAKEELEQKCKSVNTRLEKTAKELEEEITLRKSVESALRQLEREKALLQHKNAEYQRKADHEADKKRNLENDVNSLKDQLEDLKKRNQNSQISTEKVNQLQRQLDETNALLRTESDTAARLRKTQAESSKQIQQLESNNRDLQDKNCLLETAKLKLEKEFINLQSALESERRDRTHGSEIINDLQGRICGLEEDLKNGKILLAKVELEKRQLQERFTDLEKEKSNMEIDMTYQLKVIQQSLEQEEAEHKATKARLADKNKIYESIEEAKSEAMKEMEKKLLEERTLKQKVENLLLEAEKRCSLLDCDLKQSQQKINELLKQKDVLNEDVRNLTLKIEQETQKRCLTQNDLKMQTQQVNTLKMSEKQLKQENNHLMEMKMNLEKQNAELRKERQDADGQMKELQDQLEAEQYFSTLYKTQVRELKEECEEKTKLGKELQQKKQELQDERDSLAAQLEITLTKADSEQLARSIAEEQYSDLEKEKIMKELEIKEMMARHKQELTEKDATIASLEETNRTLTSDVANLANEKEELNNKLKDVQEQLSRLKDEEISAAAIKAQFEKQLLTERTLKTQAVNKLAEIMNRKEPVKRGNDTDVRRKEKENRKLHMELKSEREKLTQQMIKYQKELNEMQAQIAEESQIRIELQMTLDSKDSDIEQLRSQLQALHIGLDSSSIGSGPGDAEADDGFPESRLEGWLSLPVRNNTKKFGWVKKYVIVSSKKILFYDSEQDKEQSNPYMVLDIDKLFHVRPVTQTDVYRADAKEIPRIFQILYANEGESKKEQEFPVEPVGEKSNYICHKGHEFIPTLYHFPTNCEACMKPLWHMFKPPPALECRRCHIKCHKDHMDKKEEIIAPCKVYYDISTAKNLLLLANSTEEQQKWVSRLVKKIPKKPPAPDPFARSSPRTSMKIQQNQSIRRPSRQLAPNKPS

In turn, `CC(C)(O)COc1ccc2c(C(=O)NC3CC4(C3)CC(Oc3cc(-c5ccc(F)c(-c6nnn[nH]6)c5)ccc3C(N)=O)C4)cnn2c1` (stereo not shown) [Example 299, N-(6-((4-carbamoyl-4′-fluoro-3′-(1H-tetrazol-5-yl)-[1,1′-biphenyl]-3-yl)oxy)spiro[3.3]heptan-2-yl)-6-(2-hydroxy-2-methylpropoxy)pyrazolo[1,5-a]pyridine-3-carboxamide] had an IC50 of 5 to 50 nM.

`CC(C)(O)COc1ccc2c(C(=O)NC3CC4(C3)CC(Oc3cc(CCCN)ccc3C(N)=O)C4)cnn2c1` (stereo not shown) [Example 300, N-(6-(5-(3-aminopropyl)-2-carbamoylphenoxy)spiro[3.3]heptan-2-yl)-6-(2-hydroxy-2-methylpropoxy)pyrazolo[1,5-a]pyridine-3-carboxamide]: the concentration for half-maximal inhibition (IC50) is under 5 nM.

For `CC(C)(O)COc1ccc2c(C(=O)NC3CC4(C3)CC(Oc3cc(C5CCNC5)ccc3C(N)=O)C4)cnn2c1` (stereo not shown) [Example 301, N-(6-(2-carbamoyl-5-(pyrrolidin-3-yl)phenoxy)spiro[3.3]heptan-2-yl)-6-(2-hydroxy-2-methylpropoxy)pyrazolo[1,5-a]pyridine-3-carboxamide], the IC50 is 5 to 50 nM.

For `CC(C)(O)COc1ccc2c(C(=O)N[C@H]3CC4(C3)C[C@H](Oc3cc(Br)ccc3C(N)=O)C4)cnn2c1` (stereo partly drawn) [Example 302, N-((aR)-6-(5-bromo-2-carbamoylphenoxy)spiro[3.3]heptan-2-yl)-6-(2-hydroxy-2-methylpropoxy)pyrazolo[1,5-a]pyridine-3-carboxamide], the IC50 was under 5 nM.

`NC(=O)c1ccccc1O[C@H]1CC2(C[C@H](NC(=O)c3cnn4ccccc34)C2)C1` (stereo partly drawn) [Example 303, N-((aR)-6-(2-carbamoylphenoxy)spiro[3.3]heptan-2-yl)pyrazolo[1,5-a]pyridine-3-carboxamide] registered an IC50 of 50 to 250 nM.

As for `CC(C)(O)COc1ccc2c(C(=O)NC3CC4(C3)CC(Oc3cc(CC5CCNC5)ccc3C(N)=O)C4)cnn2c1` (stereo not shown) [Example 304, N-(6-(2-carbamoyl-5-(pyrrolidin-3-ylmethyl)phenoxy)spiro[3.3]heptan-2-yl)-6-(2-hydroxy-2-methylpropoxy)pyrazolo[1,5-a]pyridine-3-carboxamide], the IC50 is 5 to 50 nM.

Compound `CC(C)(O)COc1ccc2c(C(=O)NC3CC4(C3)CC(Oc3cc(CCCCN)ccc3C(N)=O)C4)cnn2c1` (stereo not shown) [Example 305, N-(6-(5-(4-aminobutyl)-2-carbamoylphenoxy)spiro[3.3]heptan-2-yl)-6-(2-hydroxy-2-methylpropoxy)pyrazolo[1,5-a]pyridine-3-carboxamide] gave an IC50 of under 5 nM.

On to `CC(C)(O)COc1ccc2c(C(=O)NC3CC4(C3)CC(Oc3nc(OCCN)ncc3C(N)=O)C4)cnn2c1C1CC1` (stereo not shown) [Example 306, N-(6-((2-(2-aminoethoxy)-5-carbamoylpyrimidin-4-yl)oxy)spiro[3.3]heptan-2-yl)-7-cyclopropyl-6-(2-hydroxy-2-methylpropoxy)pyrazolo[1,5-a]pyridine-3-carboxamide], for which the IC50 was 50 to 250 nM.

Turning to `[H][C@]1(Oc2ncccc2C(N)=O)C[C@@]2(C[C@H](NC(=O)c3cnn4c(Br)c(OCC(C)(F)F)ccc34)C2)C1` (stereo partly drawn) [Example 307, 7-bromo-N-((aR)-6-((3-carbamoylpyridin-2-yl)oxy)spiro[3.3]heptan-2-yl)-6-(2,2-difluoropropoxy)pyrazolo[1,5-a]pyridine-3-carboxamide], the IC50 was 5 to 50 nM.

In the case of `CC(F)(F)COc1ccc2c(C(=O)N[C@H]3CC4(C3)C[C@H](Oc3ncccc3C(N)=O)C4)cnn2c1` (stereo partly drawn) [Example 308, N-((aR)-6-((3-carbamoylpyridin-2-yl)oxy)spiro[3.3]heptan-2-yl)-6-(2,2-difluoropropoxy)pyrazolo[1,5-a]pyridine-3-carboxamide], the IC50 is under 5 nM.

Turning to `CC(F)(F)COc1ccc2c(C(=O)N[C@H]3CC4(C3)C[C@H](Oc3ncccc3C(N)=O)C4)cnn2c1C1CC1` (stereo partly drawn) [Example 309, N-((aR)-6-((3-carbamoylpyridin-2-yl)oxy)spiro[3.3]heptan-2-yl)-7-cyclopropyl-6-(2,2-difluoropropoxy)pyrazolo[1,5-a]pyridine-3-carboxamide], the IC50 was under 5 nM.

As for `CC(F)(F)COc1ccc2c(C(=O)N[C@H]3CC4(C3)C[C@H](Oc3ncccc3C(N)=O)C4)cnn2c1-c1cn[nH]c1` (stereo partly drawn) [Example 310, N-((aR)-6-((3-carbamoylpyridin-2-yl)oxy)spiro[3.3]heptan-2-yl)-6-(2,2-difluoropropoxy)-7-(1H-pyrazol-4-yl)pyrazolo[1,5-a]pyridine-3-carboxamide], the IC50 is under 5 nM.

In turn, `NC(=O)c1cccnc1O[C@H]1CC2(C[C@H](NC(=O)c3cnn4ccccc34)C2)C1` (stereo partly drawn) [Example 311, N-((aR)-6-((3-carbamoylpyridin-2-yl)oxy)spiro[3.3]heptan-2-yl)pyrazolo[1,5-a]pyridine-3-carboxamide] had an IC50 of 50 to 250 nM.

Consider `NC(=O)c1cccnc1O[C@H]1CC2(C[C@H](NC(=O)c3cnn4cc(OC(F)F)ccc34)C2)C1` (stereo partly drawn) [Example 312, N-((aR)-6-((3-carbamoylpyridin-2-yl)oxy)spiro[3.3]heptan-2-yl)-6-(difluoromethoxy)pyrazolo[1,5-a]pyridine-3-carboxamide], for which the IC50 was 5 to 50 nM.

On to `NC(=O)c1cccnc1O[C@H]1CC2(C[C@H](NC(=O)c3cnn4cc(OCC(F)F)ccc34)C2)C1` (stereo partly drawn) [Example 313, N-((aR)-6-((3-carbamoylpyridin-2-yl)oxy)spiro[3.3]heptan-2-yl)-6-(2,2-difluoroethoxy)pyrazolo[1,5-a]pyridine-3-carboxamide], for which the concentration for half-maximal inhibition (IC50) fell in the range of 5 to 50 nM.

Regarding `NC(=O)c1cccnc1O[C@H]1CC2(C[C@H](NC(=O)c3cnn4cc(OCC(O)C(F)(F)F)ccc34)C2)C1` (stereo partly drawn) [Example 314, N-((aR)-6-((3-carbamoylpyridin-2-yl)oxy)spiro[3.3]heptan-2-yl)-6-(3,3,3-trifluoro-2-hydroxypropoxy)pyrazolo[1,5-a]pyridine-3-carboxamide], the IC50 was under 5 nM.

For `NC(=O)c1cccnc1O[C@H]1CC2(C[C@H](NC(=O)c3cnn4cc(OCC(O)(C(F)(F)F)C(F)(F)F)ccc34)C2)C1` (stereo partly drawn) [Example 315, N-((aR)-6-((3-carbamoylpyridin-2-yl)oxy)spiro[3.3]heptan-2-yl)-6-(3,3,3-trifluoro-2-hydroxy-2-(trifluoromethyl)propoxy)pyrazolo[1,5-a]pyridine-3-carboxamide], the IC50 is 5 to 50 nM.

On to `NC(=O)c1cccnc1O[C@H]1CC2(C[C@H](NC(=O)c3cnn4cc(N5CCC(F)(F)CC5)ccc34)C2)C1` (stereo partly drawn) [Example 316, N-((aR)-6-((3-carbamoylpyridin-2-yl)oxy)spiro[3.3]heptan-2-yl)-6-(4,4-difluoropiperidin-1-yl)pyrazolo[1,5-a]pyridine-3-carboxamide], for which the IC50 was under 5 nM.

In turn, `NC(=O)c1cccnc1O[C@H]1CC2(C[C@H](NC(=O)c3cnn4cc(N5CCOCC5)ccc34)C2)C1` (stereo partly drawn) [Example 317, N-((aR)-6-((3-carbamoylpyridin-2-yl)oxy)spiro[3.3]heptan-2-yl)-6-morpholinopyrazolo[1,5-a]pyridine-3-carboxamide] returned an IC50 of 5 to 50 nM.

`NC(=O)c1cccnc1O[C@H]1CC2(C[C@H](NC(=O)c3cnn4cc(N5CC[C@@H](F)C5)ccc34)C2)C1` (stereo partly drawn) [Example 318, N-((aR)-6-((3-carbamoylpyridin-2-yl)oxy)spiro[3.3]heptan-2-yl)-6-((R)-3-fluoropyrrolidin-1-yl)pyrazolo[1,5-a]pyridine-3-carboxamide] displayed an IC50 of under 5 nM.

Turning to `CN1CCN(c2ccc3c(C(=O)N[C@H]4CC5(C4)C[C@H](Oc4ncccc4C(N)=O)C5)cnn3c2)CC1` (stereo partly drawn) [Example 319, N-((aR)-6-((3-carbamoylpyridin-2-yl)oxy)spiro[3.3]heptan-2-yl)-6-(4-methylpiperazin-1-yl)pyrazolo[1,5-a]pyridine-3-carboxamide], the IC50 fell in the range of 5 to 50 nM.

`CC(C)c1c(OCC(C)(C)O)ccc2c(C(=O)N[C@H]3CC4(C3)C[C@H](Oc3ncccc3C(N)=O)C4)cnn12` (stereo partly drawn) [Example 320, N-((aR)-6-((3-carbamoylpyridin-2-yl)oxy)spiro[3.3]heptan-2-yl)-6-(2-hydroxy-2-methylpropoxy)-7-isopropylpyrazolo[1,5-a]pyridine-3-carboxamide] displayed a concentration for half-maximal inhibition (IC50) of 5 to 50 nM.

As to `Cc1c(OCC(C)(C)O)ccc2c(C(=O)N[C@H]3CC4(C3)C[C@H](Oc3ncccc3C(N)=O)C4)cnn12` (stereo partly drawn) [Example 321, N-((aR)-6-((3-carbamoylpyridin-2-yl)oxy)spiro[3.3]heptan-2-yl)-6-(2-hydroxy-2-methylpropoxy)-7-methylpyrazolo[1,5-a]pyridine-3-carboxamide], the IC50 was 5 to 50 nM.

For `NC(=O)c1cccnc1O[C@H]1CC2(C[C@H](NC(=O)c3cnc4cc(N5CC[C@H](F)C5)ccn34)C2)C1` (stereo partly drawn) [Example 322, N-((aR)-6-((3-carbamoylpyridin-2-yl)oxy)spiro[3.3]heptan-2-yl)-7-((S)-3-fluoropyrrolidin-1-yl)imidazo[1,2-a]pyridine-3-carboxamide], the IC50 is under 5 nM.

`NC(=O)c1cccnc1O[C@H]1CC2(C[C@H](NC(=O)c3cnc4cc(N5CCC(F)(F)C5)ccn34)C2)C1` (stereo partly drawn) [Example 323, N-((aR)-6-((3-carbamoylpyridin-2-yl)oxy)spiro[3.3]heptan-2-yl)-7-(3,3-difluoropyrrolidin-1-yl)imidazo[1,2-a]pyridine-3-carboxamide] returned a 50% inhibitory concentration (IC50) of under 5 nM.

Consider `NC(=O)c1cccnc1O[C@H]1CC2(C[C@H](NC(=O)c3cnc4cc(N5CCC(F)(F)CC5)ccn34)C2)C1` (stereo partly drawn) [Example 324, N-((aR)-6-((3-carbamoylpyridin-2-yl)oxy)spiro[3.3]heptan-2-yl)-7-(4,4-difluoropiperidin-1-yl)imidazo[1,2-a]pyridine-3-carboxamide], for which the half-inhibitory concentration (IC50) is under 5 nM.

`NC(=O)c1cccnc1O[C@H]1CC2(C[C@H](NC(=O)c3cnc4cc(OCCN5CCCC5)ccn34)C2)C1` (stereo partly drawn) [Example 325, N-((aR)-6-((3-carbamoylpyridin-2-yl)oxy)spiro[3.3]heptan-2-yl)-7-(2-(pyrrolidin-1-yl)ethoxy)imidazo[1,2-a]pyridine-3-carboxamide] yielded an IC50 of 5 to 50 nM.

Compound `NC(=O)c1cccnc1O[C@H]1CC2(C[C@H](NC(=O)c3cnc4cc(N5CC[C@@H](O)C5)ccn34)C2)C1` (stereo partly drawn) [Example 326, N-((aR)-6-((3-carbamoylpyridin-2-yl)oxy)spiro[3.3]heptan-2-yl)-7-((R)-3-hydroxypyrrolidin-1-yl)imidazo[1,2-a]pyridine-3-carboxamide] yielded an IC50 of 5 to 50 nM.

Broadly, the IC50 is the concentration needed to halve the response being measured. A higher IC50 goes with lower potency.
